How the values were obtained:
E. coli ATCC25922 = test: Antibacterial activity in combination with minocycline (growth inhibition); format: cell-based; conditions: Escherichia coli, minocycline 0.25 μg/mL, OD625 23 h minus 1 h, read-out: residual growth of E. coli ATCC25922 (% of uninhibited control) with minocycline; for activity at 50 µM: ATCC25922, compound at 50 μM; for activity at 25 µM: ATCC25922, compound at 25 μM
Outline: (§1)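 Test compound combined with fixed subinhibitory partner antibiotic: linezolid 128 μg/mL for either strain, minocycline 0.25 μg/mL (E. coli) or 8 μg/mL (P. aeruginosa), in caMHB shaken at 37 °C. Residual growth as % of inhibitor-free control, from OD625 at 23 h minus 1 h.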

P. aeruginosa PAO1 = test: as above; format: cell-based; conditions: Pseudomonas aeruginosa, PAO1, compound at 50 μM; minocycline 8 μg/mL; OD625 23 h minus 1 h; read-out: residual growth of P. aeruginosa PAO1 (% of uninhibited control) with minocycline
Outline: as §1

Row | Structure (SMILES) | activity at 50 µM (E. coli ATCC25922) | activity at 50 µM (P. aeruginosa PAO1) | activity at 25 µM (E. coli ATCC25922)
1 | COc1cc(C#N)ccc1COc1cccc(CNCC2CNC2)c1 [Example 26] | ≤ 50% | ≤ 50% | 
2 | Clc1ccc(COc2cccc(CCNCC3CNC3)c2)cc1 [Example 28] |  | ≤ 50% | ≤ 10%
3 | CC(C)(c1ccccc1)c1ccc(OCCNCC2CNC2)cc1 [Example 50] | ≤ 50% | ≤ 50% | 
4 | CC(C)(C)c1ccc(COc2ccc(CNCC3CCNCC3)cc2)cc1 [Example 57] |  | ≤ 50% | ≤ 10%
5 | Clc1ccc(-c2cccc(CNCC3CCNC3)c2)c(Br)c1 (centres unmarked) [Example 74] |  | ≤ 50% | ≤ 10%
6 | Clc1ccc(Oc2ccc(CNCC3CCNC3)cc2)c(Br)c1 (centres unmarked) [Example 82] |  | ≤ 50% | ≤ 10%
7 | COC(=O)c1ccc(COc2ccc(CNCC3CNC3)cc2)c(Br)c1 [Example 87] | ≤ 50% | ≤ 50% | 
8 | Clc1ccc(Oc2ccccc2CNCC2CNC2)c(Br)c1 [Example 89] | ≤ 50% | ≤ 50% | 
9 | Clc1ccc(OCc2ccc(CNCC3CNC3)o2)c(Br)c1 [Example 93] |  | ≤ 50% | 
10 | CS(=O)(=O)c1ccc(COc2cccc(CNCC3CNC3)c2)c(Cl)c1 [Example 102] |  | ≤ 50% | 
11 | COCc1cc(CNCC2CNC2)cc(OCc2ccc(Cl)cc2Br)c1 [Example 124] |  | ≤ 50% | ≤ 10%
12 | FC(F)(F)c1cc(Cl)ccc1COc1cccc(CNCC2CNC2)c1 [Example 131] |  | ≤ 50% | ≤ 10%
13 | Clc1ccc(NCc2cccc(CNCC3CNC3)c2)c(Br)c1 [Example 170] |  | ≤ 50% | ≤ 10%
14 | Clc1ccc(COCc2cccc(CNCC3CNC3)c2)c(Br)c1 [Example 173, N-(azetidin-3-ylmethyl)-1-[3-[(2-bromo-4-chloro-phenyl)methoxymethyl]phenyl]methanamine] |  | ≤ 50% | ≤ 10%
15 | Clc1ccc(COc2cccc(CNCC3CNC3)c2)c(Cl)c1 [Example 177] |  | ≤ 50% | ≤ 10%
16 | Ic1ccc(COc2cccc(CNCC3CNC3)c2)cc1 [Example 206] |  | ≤ 50% | 
17 | O=C(O)c1ccc(COc2cc(CNCC3CNC3)cc(OCc3ccc(Cl)cc3Br)c2)cc1 [Example 208] |  | ≤ 50% | 
18 | Ic1cccc(COc2cccc(CNCC3CNC3)c2)c1 [Example 219] |  | ≤ 50% | ≤ 10%
19 | Brc1ccccc1COc1cccc(CNCC2CCNC2)c1 (centres unmarked) [Example 220] |  | ≤ 50% | 
20 | Ic1cccc(COc2cccc(CNCC3CCNC3)c2)c1 (centres unmarked) [Example 221] |  | ≤ 50% | ≤ 10%
21 | CC(C)(C)c1ccc(COc2cccc(CNCC3CNC3)c2)cc1 [Example 222] |  | ≤ 50% | ≤ 10%
22 | CC(C)(C)c1ccc(COc2cccc(CNC3CCNCC3)c2)cc1 [Example 223] |  | ≤ 50% | ≤ 10%
23 | C=CCOc1cc(/C=C/c2cccc(OC)c2)cc(CNCC2CNC2)c1 [Example 276] |  | ≤ 50% | ≤ 10%

Row | Structure (SMILES) | activity at 50 µM (E. coli ATCC25922) | activity at 50 µM (P. aeruginosa PAO1) | activity at 25 µM (E. coli ATCC25922)
24 | CC(C)(C)c1ccc(COc2cc(CNCC3CNC3)cc(OCCN3CCOCC3)c2)cc1 [Example 277] |  | ≤ 50% | ≤ 10%
25 | C=CCOc1cc(/C=C/c2ccccc2OC)cc(CNCC2CNC2)c1 [Example 285] |  | ≤ 50% | ≤ 10%
26 | C[N+]1(C)CC(OCc2cc(CNCC3CNC3)cc(OCc3ccc(Cl)cc3Br)c2)CC1C(=O)O (centres unmarked) [Example 288] | ≤ 50% | ≤ 50% | 
27 | N#Cc1ccc(/C=C/c2cccc(CNCC3CCNC3)c2)c(C(F)(F)F)c1 (centres unmarked) [Example 314] |  | ≤ 50% | ≤ 10%
28 | C=CCOc1cc(/C=C/c2cnccc2C#N)cc(CNCC2CCNC2)c1 (centres unmarked) [Example 316] |  | ≤ 50% | ≤ 10%
29 | C=CCOc1cc(/C=C/c2cccs2)cc(CNCC2CCNC2)c1 (centres unmarked) [Example 319] |  | ≤ 50% | ≤ 10%
30 | C=CCOc1cc(CNCC2CCNC2)cc(CNC(=O)c2ccc(Cl)cc2Br)c1 (centres unmarked) [Example 349] |  | ≤ 50% | 
31 | C=CCOc1cc(CNCC2CNC2)cc(OCc2cc(C)on2)c1 [Example 420] |  | ≤ 50% | 
32 | C=CCOc1cc(CNCC2CCNC2)cc(OCCc2ccncc2)c1 (centres unmarked) [Example 424] |  | ≤ 50% | 
33 | c1cncc(COc2cc(CNCC3CNC3)cc(OCCc3ccncc3)c2)c1 [Example 425] |  | ≤ 50% | 
34 | C=CCOc1cc(CNCC2CNC2)cc(OCc2cncc(C(N)=O)c2)c1 [Example 437] |  | ≤ 50% | 
35 | C(=C\c1cc(CNCC2CCNC2)cc(OCCN2CCOCC2)c1)/c1cccnc1 (centres unmarked) [Example 440] |  | ≤ 50% | 
36 | C=CCOc1cc(/C=C/c2ccc(Cl)cc2Br)cc(C[N+](C)(C)CC(=O)NCC2CNC2)c1 [Example 444] |  |  | ≤ 10%
37 | N#Cc1cncc(/C=C/c2cc(OCc3ccccc3)cc(CNCC3CCNC3)n2)c1 (centres unmarked) [Example 446] |  |  | ≤ 10%
38 | C=CCOc1cc(/C=C/c2ccc(Cl)cc2Br)cc(CN(CC2CNC2)CC2CNC2)c1 [Example 448] |  |  | ≤ 10%
39 | C=CCOc1cc(/C=C/c2ccc(Cl)cc2Br)cc(CNCCNC(=O)C2CNC2)c1 [Example 450] |  |  | ≤ 10%
40 | C=CCOc1cc(/C=C/c2ccc(Cl)cc2Br)cc(C(=O)NCCNCC2CNC2)c1 [Example 451] |  |  | ≤ 10%
41 | C=CCOc1cc(/C=C/c2ccc(Cl)cc2Br)cc(CNC(=O)C[N+](C)(C)CC2CNC2)c1 [Example 452] |  |  | ≤ 10%
42 | C=CCOc1cc(/C=C/c2ccc(Cl)cc2Br)cc(CNCCNCC2CNC2)c1 [Example 453] |  |  | ≤ 10%
43 | C=CCOc1cc(/C=C/c2ccc(Cl)cc2Br)cc(CNCCN(CC2CNC2)CC2CNC2)c1 [Example 455] |  |  | ≤ 10%
44 | C=CCOc1cc(/C=C/c2ccc(Cl)cc2Br)cc(C(=O)N(CC2CNC2)CC2CNC2)c1 [Example 456] |  |  | ≤ 10%
45 | C=CCOc1cc(/C=C/c2cncc(C(=O)OC)c2)cc(CNCC2CCNC2)c1 (centres unmarked) [Example 457] |  |  | ≤ 10%
46 | C=CCOc1cc(/C=C/c2cncc(C(N)=O)c2)cc(CNCC2CCNC2)c1 (centres unmarked) [Example 458] |  | ≤ 50% | 

Row | Structure (SMILES) | activity at 50 µM (E. coli ATCC25922) | activity at 50 µM (P. aeruginosa PAO1) | activity at 25 µM (E. coli ATCC25922)
47 | CC(C)COc1cc(/C=C/c2cccnc2)cc(C[N+](C)(C)CC2CCNC2)c1 (centres unmarked) [Example 459] |  |  | ≤ 10%
48 | CC(C)COc1cc(/C=C/c2cncc(C#N)c2)cc(C[N+](C)(C)CC2CCNC2)c1 (centres unmarked) [Example 460] |  |  | ≤ 10%
49 | Clc1ccc(COc2ccc(OCCc3c[nH]cn3)c(CNCC3CCNC3)c2)c(Br)c1 (centres unmarked) [Example 463] |  |  | ≤ 10%
50 | Clc1ccc(/C=C/c2ccc(OCCc3c[nH]cn3)c(CNCC3CCNC3)c2)c(Br)c1 (centres unmarked) [Example 464] |  |  | ≤ 10%
51 | Clc1ccc(COc2ccc(OCCc3c[nH]cn3)c(CNCC3CNC3)c2)c(Br)c1 [Example 465] |  |  | ≤ 10%
52 | Clc1ccc(/C=C/c2ccc(OCCc3c[nH]cn3)c(CNCC3CNC3)c2)c(Br)c1 [Example 471] |  |  | ≤ 10%
53 | N#Cc1cncc(/C=C/c2cc(CNCC3CCNC3)cc(OCc3ccccn3)c2)c1 (centres unmarked) [Example 474] |  | ≤ 50% | 
54 | CC(C)COc1cc(CNCC2CCNC2)cc(CNC(=O)c2cccc(C(N)=O)c2)c1 (centres unmarked) [Example 477, N1-[[3-isobutoxy-5-[(pyrrolidin-3-ylmethylamino)methyl]phenyl]methyl]benzene-1,3-dicarboxamide] |  | ≤ 50% | 
55 | N#Cc1cncc(/C=C/c2cc(O)cc(CNCC3CCNC3)c2)c1 (centres unmarked) [Example 480, 5-[(E)-2-[3-hydroxy-5-[(pyrrolidin-3-ylmethylamino)methyl]phenyl]vinyl]pyridine-3-carbonitrile] |  | ≤ 50% | 
56 | CC(C)COc1cc(CNCC2CCNC2)cc(NC(=O)c2cccnc2)c1 (centres unmarked) [Example 485, N-[3-isobutoxy-5-[(pyrrolidin-3-ylmethylamino)methyl]phenyl]pyridine-3-carboxamide] | ≤ 50% |  | 
57 | N#Cc1cncc(/C=C/c2cc(CNCC3CCNC3)cc(OCCc3ccncc3)c2)c1 (centres unmarked) [Example 496] |  | ≤ 50% | 
58 | C=CCOc1cc(/C=C/c2cncc(O)c2)cc(CNCC2CCNC2)c1 (centres unmarked) [Example 499] | ≤ 50% |  | 
59 | Clc1ccc(/C=C/c2cc(OCCCNCC3CNC3)cc(OCCc3ccncc3)c2)c(Br)c1 [Example 509] |  |  | ≤ 10%
60 | O=C(NCc1cc(CNCC2CNC2)cc(OCCc2ccncc2)c1)c1cccnc1 [Example 510] |  | ≤ 50% | 
61 | Cc1cc(COc2ccc(OCCCNCC3CNC3)c(/C=C/c3ccc(Cl)cc3Br)c2)no1 [Example 512] |  |  | ≤ 10%
62 | CC(C)COc1ccc(/C=C/c2ccc(Cl)cc2Br)cc1OCCCNCC1CNC1 [Example 513] |  |  | ≤ 10%
63 | O=C(NCCNC(=O)C1CNC1)c1cc(/C=C/c2ccc(Cl)cc2Br)cc(OCCc2ccncc2)c1 [Example 515] |  |  | ≤ 10%
64 | Clc1ccc(/C=C/c2cc(OCCCCNCC3CNC3)cc(OCCc3ccncc3)c2)c(Br)c1 [Example 517] |  |  | ≤ 10%
65 | O=C(NCCNCC1CNC1)c1cc(/C=C/c2ccc(Cl)cc2Br)cc(OCCc2ccncc2)c1 [Example 518] |  |  | ≤ 10%
66 | Clc1ccc(/C=C/c2cc(OCc3ccncc3)ccc2OCCCNCC2CNC2)c(Br)c1 [Example 519] |  |  | ≤ 10%
67 | Cc1cc(COc2ccc(/C=C/c3ccc(Cl)cc3Br)cc2CNC(=O)C2CCNC2)no1 (centres unmarked) [Example 523] |  |  | ≤ 10%
68 | Clc1ccc(/C=C/c2cc(OCCc3ccncc3)ccc2OCCCNCC2CNC2)c(Br)c1 [Example 525] |  |  | ≤ 10%
